Key:
Format in all cases: in vivo
[1] = test system: blackgrass (Alopecurus myosuroides); assay: Test A postemergence; details: Alopecurus myosuroides, post-emergence, 240 h, postemergence; for pest or weed control at 125 g/ha: 125 g ai/ha, visual injury vs untreated controls after approx. 10 d, 0 = no effect, 100 = complete control, read-out: Blackgrass plant response rating (0 to 100 scale); for pest or weed control at 500 g/ha: 500 g ai/ha, 0 to 100 scale, 0 is no effect, 100 is complete control, read-out: Blackgrass plant response rating
In short: (§1)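 Seeds sprayed preemergence with a directed soil spray, or plants at 2 to 10 cm height and one- to two-leaf stage sprayed postemergence, with test chemicals in a non-phytotoxic solvent mixture containing surfactant, in loam soil–sand blend. Injury rated visually against untreated controls after about 10 d in greenhouse, 0 (no effect) to 100 (complete control).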

[2] = test system: pigweed (Amaranthus retroflexus); assay: Test A postemergence; details: Amaranthus retroflexus, post-emergence, 240 h, postemergence; for pest or weed control at 125 g/ha: 125 g ai/ha, visual injury vs untreated controls after approx. 10 d, 0 = no effect, 100 = complete control, read-out: Pigweed plant response rating (0 to 100 scale); for pest or weed control at 500 g/ha: 500 g ai/ha, 0 to 100 scale, 0 is no effect, 100 is complete control, read-out: Pigweed plant response rating
In short: as §1

[3] = test system: ragweed (common ragweed, Ambrosia elatior); assay: Test A postemergence; details: Ambrosia artemisiifolia, post-emergence, 240 h, postemergence; for pest or weed control at 125 g/ha: 125 g ai/ha, visual injury vs untreated controls after approx. 10 d, 0 = no effect, 100 = complete control, read-out: Ragweed plant response rating (0 to 100 scale); for pest or weed control at 500 g/ha: 500 g ai/ha, 0 to 100 scale, 0 is no effect, 100 is complete control, read-out: Ragweed plant response rating
In short: as §1

[4] = test system: wheat (Triticum aestivum); assay: Test A postemergence; details: Triticum aestivum, post-emergence, 240 h, postemergence; for plant injury at 125 g/ha: 125 g ai/ha, visual injury vs untreated controls after approx. 10 d, 0 = no effect, 100 = complete control, read-out: Wheat plant response rating (0 to 100 scale); for plant injury at 500 g/ha: 500 g ai/ha, 0 to 100 scale, 0 is no effect, 100 is complete control, read-out: Wheat plant response rating
In short: as §1

[5] = test system: barnyardgrass (Echinochloa crus-galli); assay: Test A postemergence; details: Echinochloa crus-galli, post-emergence, 240 h, postemergence; for pest or weed control at 125 g/ha: 125 g ai/ha, visual injury vs untreated controls after approx. 10 d, 0 = no effect, 100 = complete control, read-out: Barnyardgrass plant response rating (0 to 100 scale); for pest or weed control at 500 g/ha: 500 g ai/ha, 0 to 100 scale, 0 is no effect, 100 is complete control, read-out: Barnyardgrass plant response rating
In short: as §1

[6] = test system: giant foxtail (Setaria faberii); assay: Test A postemergence; details: Setaria faberi, post-emergence, 240 h, postemergence; for pest or weed control at 125 g/ha: 125 g ai/ha, visual injury vs untreated controls after approx. 10 d, 0 = no effect, 100 = complete control, read-out: Foxtail, Giant plant response rating (0 to 100 scale); for pest or weed control at 500 g/ha: 500 g ai/ha, 0 to 100 scale, 0 is no effect, 100 is complete control, read-out: Foxtail, Giant plant response rating
In short: as §1

[7] = test system: ryegrass, Italian (Italian ryegrass, Lolium multiflorum); assay: Test A postemergence; details: Lolium multiflorum, post-emergence, 240 h, postemergence; for pest or weed control at 125 g/ha: 125 g ai/ha, visual injury vs untreated controls after approx. 10 d, 0 = no effect, 100 = complete control, read-out: Ryegrass, Italian plant response rating (0 to 100 scale); for pest or weed control at 500 g/ha: 500 g ai/ha, 0 to 100 scale, 0 is no effect, 100 is complete control, read-out: Ryegrass, Italian plant response rating
In short: as §1

[8] = test system: Galium (catchweed bedstraw, Galium aparine); assay: Test A postemergence; details: Galium, post-emergence, 240 h, postemergence; for pest or weed control at 125 g/ha: 125 g ai/ha, visual injury vs untreated controls after approx. 10 d, 0 = no effect, 100 = complete control, read-out: Galium plant response rating (0 to 100 scale); for pest or weed control at 500 g/ha: 500 g ai/ha, 0 to 100 scale, 0 is no effect, 100 is complete control, read-out: Galium plant response rating
In short: as §1

[9] = test system: corn (Zea mays); assay: Test A postemergence; details: Zea mays, post-emergence, 240 h, postemergence; for plant injury at 125 g/ha: 125 g ai/ha, visual injury vs untreated controls after approx. 10 d, 0 = no effect, 100 = complete control, read-out: Corn plant response rating (0 to 100 scale); for plant injury at 500 g/ha: 500 g ai/ha, 0 to 100 scale, 0 is no effect, 100 is complete control, read-out: Corn plant response rating
In short: as §1

[10] = test system: pigweed (Amaranthus retroflexus); assay: Test A preemergence; details: Amaranthus retroflexus, pre-emergence, 240 h, preemergence, 0 to 100 scale where 0 is no effect and 100 is complete control, read-out: Pigweed plant response rating; for pest or weed control at 125 g/ha: 125 g ai/ha, visual injury rating, approximately 10 d; for pest or weed control at 500 g/ha: 500 g ai/ha
[11] = test system: ragweed (common ragweed, Ambrosia elatior); assay: Test A preemergence; details: Ambrosia artemisiifolia, pre-emergence, 240 h, preemergence, 0 to 100 scale where 0 is no effect and 100 is complete control, read-out: Ragweed plant response rating; for pest or weed control at 125 g/ha: 125 g ai/ha, visual injury rating, approximately 10 d; for pest or weed control at 500 g/ha: 500 g ai/ha
In short: as §1

[12] = test system: barnyardgrass (Echinochloa crus-galli); assay: Test A preemergence; details: Echinochloa crus-galli, pre-emergence, 240 h, preemergence, 0 to 100 scale where 0 is no effect and 100 is complete control, read-out: Barnyardgrass plant response rating; for pest or weed control at 125 g/ha: 125 g ai/ha, visual injury rating, approximately 10 d; for pest or weed control at 500 g/ha: 500 g ai/ha
In short: as §1

[13] = test system: giant foxtail (Setaria faberii); assay: Test A preemergence; details: Setaria faberi, pre-emergence, 240 h, preemergence, 0 to 100 scale where 0 is no effect and 100 is complete control, read-out: Foxtail, Giant plant response rating; for pest or weed control at 125 g/ha: 125 g ai/ha, visual injury rating, approximately 10 d; for pest or weed control at 500 g/ha: 500 g ai/ha
In short: as §1

[14] = test system: Kochia (Kochia scoparia); assay: Test A preemergence; details: Bassia scoparia, pre-emergence, 240 h, preemergence, 0 to 100 scale where 0 is no effect and 100 is complete control, read-out: Kochia plant response rating; for pest or weed control at 125 g/ha: 125 g ai/ha, visual injury rating, approximately 10 d; for pest or weed control at 500 g/ha: 500 g ai/ha
In short: as §1

[15] = test system: ryegrass, Italian (Italian ryegrass, Lolium multiflorum); assay: Test A preemergence; details: Lolium multiflorum, pre-emergence, 240 h, preemergence, 0 to 100 scale where 0 is no effect and 100 is complete control, read-out: Ryegrass, Italian plant response rating; for pest or weed control at 125 g/ha: 125 g ai/ha, visual injury rating, approximately 10 d; for pest or weed control at 500 g/ha: 500 g ai/ha
In short: as §1

Row | SMILES | pest or weed control at 125 g/ha [1] | pest or weed control at 500 g/ha [1] | pest or weed control at 125 g/ha [2] | pest or weed control at 500 g/ha [2] | pest or weed control at 125 g/ha [3] | pest or weed control at 500 g/ha [3] | plant injury at 125 g/ha [4] | plant injury at 500 g/ha [4] | pest or weed control at 125 g/ha [5] | pest or weed control at 500 g/ha [5] | pest or weed control at 125 g/ha [6] | pest or weed control at 500 g/ha [6] | pest or weed control at 125 g/ha [7] | pest or weed control at 500 g/ha [7] | pest or weed control at 125 g/ha [8] | pest or weed control at 500 g/ha [8] | plant injury at 125 g/ha [9] | plant injury at 500 g/ha [9] | pest or weed control at 125 g/ha [10] | pest or weed control at 500 g/ha [10] | other results
1 | Cc1ccc([C@H]2CCN(C)C(=O)[C@@H]2C(=O)Nc2ccc(F)c(F)c2F)cc1 [Compound 1221] | 60% | 70% | 0% | 0% | 0% | 20% | 20% | 60% | 30% | 60% | 90% | 90% | 20% | 70% | 40% | 60% | 0% | 60% | 0% | 50% | pest or weed control at 125 g/ha [11]: 20%; pest or weed control at 500 g/ha [11]: 70%; pest or weed control at 125 g/ha [12]: 90%; pest or weed control at 500 g/ha [12]: 100%; pest or weed control at 125 g/ha [13]: 90%; pest or weed control at 500 g/ha [13]: 100%; pest or weed control at 125 g/ha [14]: 40%; pest or weed control at 500 g/ha [14]: 50%; pest or weed control at 125 g/ha [15]: 20%; pest or weed control at 500 g/ha [15]: 80%
2 | CSc1ccccc1NC(=O)[C@H]1C(=O)N(C)CC[C@@H]1c1ccc(C)cc1 [Compound 1222] | 0% | 0% | 0% | 0% | 0% | 0% | 0% | 0% | 0% | 0% | 20% | 70% | 0% | 0% | 0% | 0% | 0% | 0% | 0% | 0% | pest or weed control at 125 g/ha [11]: 0%; pest or weed control at 500 g/ha [11]: 0%; pest or weed control at 125 g/ha [12]: 0%; pest or weed control at 500 g/ha [12]: 20%; pest or weed control at 125 g/ha [13]: 0%; pest or weed control at 500 g/ha [13]: 60%; pest or weed control at 125 g/ha [14]: 0%; pest or weed control at 500 g/ha [14]: 40%; pest or weed control at 125 g/ha [15]: 0%; pest or weed control at 500 g/ha [15]: 0%

Source: patent US12077503B2, “Substituted cyclic amides and their use as herbicides” (FMC CORPORATION, priority 2015, dated 2024)
